Laboratory results from patent US20240115654A1, “INTRAVENOUS ADMINISTRATION OF ENGINEERED ANTIMICROBIAL AMPHIPHILIC PEPTIDES” (priority 2021, published 2024).
Where two headings read alike, the source gives them in different places. Peptide text beside a SMILES is read from it.

Details: human, in vivo; for Vd: mean apparent volume of distribution (Vz)
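Further: phase 1 study in human subjects given one IV dose of the peptide, enrolled in sequential ascending-dose cohorts and randomized to peptide or placebo.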

Procedure: Administration was a single 1-hour infusion.
Subjects were enrolled in sequential cohorts of peptide ascending dose levels and randomly assigned to receive a single IV administration of either peptide or placebo over 1 to 2 hours. […] In addition, the infusion volume was adjusted for Cohort 4 to maintain drug concentrations in line with Cohort 2
Blood samples for PK assessment were collected at pre-dose, at the midpoint of infusion, within 1 minute after the end-of-infusion and at 0.5, 1, 2, 4, 6, 8, 12, 20, 24, 36 and 48 hours after the end-of-infusion.
The pharmaceutical composition was stored at 2° C. to 8° C. for up to 14 days and then 15° C. to 25° C. for up to 48 hours for dosing.
Subjects were enrolled in sequential cohorts of peptide ascending dose levels and randomly assigned to receive a single IV administration of either peptide or placebo over 1 to 2 hours.

CC(C)[C@H](NC(=O)[C@H](Cc1c[nH]c2ccccc12)NC(=O)[C@H](CCCNC(=N)N)NC(=O)[C@H](CCCNC(=N)N)NC(=O)[C@@H](NC(=O)[C@@H](NC(=O)[C@H](CCCNC(=N)N)NC(=O)[C@@H](NC(=O)[C@@H](NC(=O)[C@H](CCCNC(=N)N)NC(=O)[C@H](CCCNC(=N)N)NC(=O)[C@H](Cc1c[nH]c2ccccc12)NC(=O)[C@@H](NC(=O)[C@H](CCCNC(=N)N)NC(=O)[C@H](CCCNC(=N)N)NC(=O)[C@@H](NC(=O)[C@H](CCCNC(=N)N)NC(=O)[C@H](CCCNC(=N)N)NC(=O)[C@@H](NC(=O)[C@H](Cc1c[nH]c2ccccc12)NC(=O)[C@H](CCCNC(=N)N)NC(=O)[C@@H](N)CCCNC(=N)N)C(C)C)C(C)C)C(C)C)C(C)C)C(C)C)C(C)C)C(C)C)C(=O)N[C@@H](CCCNC(=N)N)C(=O)N[C@@H](CCCNC(=N)N)C(N)=O [SEQ ID NO: 1] (H-RRWVRRVRRVWRRVVRVVRRWVRR-NH2)
Cmax (iv, Cohort 4, 0.5 mg/kg IV infusion 2 hours, Median): 1970 ng/mL | Cmax (iv, Cohort 4, 0.5 mg/kg IV, infusion 2 hours, cohort Geometric Mean): 1770 ng/mL | Cmax (iv, Cohort 4, 0.5 mg/kg IV, infusion 2 hours, cohort Mean): 1830 ng/mL | Cmax (iv, Cohort 4, 0.5 mg/kg IV, infusion 2 hours, cohort Median): 1970 ng/mL | Cmax (iv, Cohort 5, 1 mg/kg IV infusion 4 hours, Geometric Mean): 2580 ng/mL | Cmax (iv, Cohort 5, 1 mg/kg IV infusion 4 hours, Mean): 2650 ng/mL | Cmax (iv, Cohort 5, 1 mg/kg IV infusion 4 hours, Median): 2510 ng/mL | Cmax (iv, Cohort 5, 1 mg/kg IV infusion 4 hours, individual subject): 4000 ng/mL | Tmax (iv, Tmax, Cohort 1, 0.05 mg/kg IV infusion, Geometric Mean): 1 h | Tmax (iv, Tmax, Cohort 1, 0.05 mg/kg IV infusion, Mean): 1 h | Tmax (iv, Tmax, Cohort 1, 0.05 mg/kg IV infusion, Median): 1 h | Tmax (iv, Tmax, Cohort 1, 0.05 mg/kg IV infusion, cohort Geometric Mean): 1 h | Tmax (iv, Tmax, Cohort 1, 0.05 mg/kg IV infusion, cohort Mean): 1 h | Tmax (iv, Tmax, Cohort 1, 0.05 mg/kg IV infusion, cohort Median): 1 h | Tmax (iv, Tmax, Cohort 1, 0.05 mg/kg IV infusion, individual subject): 1 h | Tmax (iv, Tmax, Cohort 1, 0.05 mg/kg IV infusion, individual subjects): 1 h | Tmax (iv, Tmax, Cohort 2, […] IV infusion, Geometric Mean): 1 h | Tmax (iv, Tmax, Cohort 2, […] IV infusion, Mean): 1 h | Tmax (iv, Tmax, Cohort 2, […] IV infusion, Median): 1 h | Tmax (iv, Tmax, Cohort 2, […] IV infusion, cohort Geometric Mean): 1 h | Tmax (iv, Tmax, Cohort 2, […] IV infusion, cohort Mean): 1 h | Tmax (iv, Tmax, Cohort 2, […] IV infusion, cohort Median): 1 h | Tmax (iv, Tmax, Cohort 2, […] IV infusion, individual subject): 1 h | Tmax (iv, Tmax, Cohort 2, […] IV infusion, individual subjects): 1 h | Tmax (iv, Tmax, Cohort 3, […] IV infusion, Geometric Mean): 0.66 h | Tmax (iv, Tmax, Cohort 3, […] IV infusion, Mean): 0.71 h | Tmax (iv, Tmax, Cohort 3, […] IV infusion, Median): 0.5 h | Tmax (iv, Tmax, Cohort 3, […] IV infusion, cohort Geometric Mean): 0.66 h | Tmax (iv, Tmax, Cohort 3, […] IV infusion, cohort Mean): 0.71 h | Tmax (iv, Tmax, Cohort 3, […] IV infusion, cohort Median): 0.5 h | Tmax (iv, Tmax, Cohort 3, […] IV infusion, individual subject): 1 h | Tmax (iv, Tmax, Cohort 3, […] IV infusion, individual subjects): 1 h | Tmax (iv, Tmax, Cohort 3b, […] IV infusion 2 hours, Geometric Mean): 2 h | Tmax (iv, Tmax, Cohort 3b, […] IV infusion 2 hours, Mean): 2 h | Tmax (iv, Tmax, Cohort 3b, […] IV infusion 2 hours, Median): 2 h | Tmax (iv, Tmax, Cohort 3b, […] IV infusion 2 hours, individual subject): 2 h | Tmax (iv, Tmax, Cohort 3b, infusion 2 hours, cohort Geometric Mean): 2 h | Tmax (iv, Tmax, Cohort 3b, infusion 2 hours, cohort Mean): 2 h | Tmax (iv, Tmax, Cohort 3b, infusion 2 hours, cohort Median): 2 h | Tmax (iv, Tmax, Cohort 3b, infusion 2 hours, individual subjects): 2 h | Tmax (iv, Tmax, Cohort 4, 0.5 mg/kg IV infusion 2 hours, Geometric Mean): 2 h | Tmax (iv, Tmax, Cohort 4, 0.5 mg/kg IV infusion 2 hours, Mean): 2 h | Tmax (iv, Tmax, Cohort 4, 0.5 mg/kg IV infusion 2 hours, Median): 2 h | Tmax (iv, Tmax, Cohort 4, 0.5 mg/kg IV infusion 2 hours, individual subject): 2 h | Tmax (iv, Tmax, Cohort 4, 0.5 mg/kg IV, infusion 2 hours, cohort Geometric Mean): 2 h | Tmax (iv, Tmax, Cohort 4, 0.5 mg/kg IV, infusion 2 hours, cohort Mean): 2 h | Tmax (iv, Tmax, Cohort 4, 0.5 mg/kg IV, infusion 2 hours, cohort Median): 2 h | Tmax (iv, Tmax, Cohort 4, 0.5 mg/kg IV, infusion 2 hours, individual subjects): 2 h | Tmax (iv, Tmax, Cohort 5, 1 mg/kg IV infusion 4 hours, Geometric Mean): 4 h | Tmax (iv, Tmax, Cohort 5, 1 mg/kg IV infusion 4 hours, Mean): 4 h | Tmax (iv, Tmax, Cohort 5, 1 mg/kg IV infusion 4 hours, Median): 4 h | Tmax (iv, Tmax, Cohort 5, 1 mg/kg IV infusion 4 hours, individual subject): 4 h | half-life (iv, […], t1/2, […] IV 1-hr infusion): 10.5 h | half-life (iv, […], t1/2, […] IV 1-hr infusion (only 3 participants)): 19.9 h | half-life (iv, […], t1/2, […] IV 2-hr infusion): 13.2 h | Tmax (iv, median Tmax, 0.05 and […] doses, 1-hour IV infusion (Cohorts 1, 2)): 1.02 h | Tmax (iv, median Tmax, 0.25 and 0.5 mg/kg doses, 2-hour IV infusion (Cohorts 3b, 4)): 2.02 h | half-life (iv, t1/2, Cohort 1, 0.05 mg/kg IV infusion, Geometric Mean): 7.33 h | half-life (iv, t1/2, Cohort 1, 0.05 mg/kg IV infusion, Mean): 7.36 h | half-life (iv, t1/2, Cohort 1, 0.05 mg/kg IV infusion, Median): 7.29 h | half-life (iv, t1/2, Cohort 1, 0.05 mg/kg IV infusion, cohort Geometric Mean): 7.33 h | half-life (iv, t1/2, Cohort 1, 0.05 mg/kg IV infusion, cohort Mean): 7.36 h | half-life (iv, t1/2, Cohort 1, 0.05 mg/kg IV infusion, cohort Median): 7.29 h | half-life (iv, t1/2, Cohort 1, 0.05 mg/kg IV infusion, individual subject): 6.62 h | half-life (iv, t1/2, Cohort 1, 0.05 mg/kg IV infusion, individual subjects): 6.62 h | half-life (iv, t1/2, Cohort 2, […] IV infusion, Geometric Mean): 10.1 h | half-life (iv, t1/2, Cohort 2, […] IV infusion, Mean): 10.5 h | half-life (iv, t1/2, Cohort 2, […] IV infusion, Median): 9.2 h | half-life (iv, t1/2, Cohort 2, […] IV infusion, cohort Geometric Mean): 10.1 h | half-life (iv, t1/2, Cohort 2, […] IV infusion, cohort Mean): 10.5 h | half-life (iv, t1/2, Cohort 2, […] IV infusion, cohort Median): 9.2 h | half-life (iv, t1/2, Cohort 3, […] IV infusion, Geometric Mean): 13.6 h | half-life (iv, t1/2, Cohort 3, […] IV infusion, Mean): 15.2 h | half-life (iv, t1/2, Cohort 3, […] IV infusion, Median): 19 h | half-life (iv, t1/2, Cohort 3, […] IV infusion, cohort Geometric Mean): 13.6 h | half-life (iv, t1/2, Cohort 3, […] IV infusion, cohort Mean): 15.2 h | half-life (iv, t1/2, Cohort 3, […] IV infusion, cohort Median): 19 h | half-life (iv, t1/2, Cohort 3b, […] IV infusion 2 hours, Geometric Mean): 12.8 h | half-life (iv, t1/2, Cohort 3b, […] IV infusion 2 hours, Mean): 13.1 h | half-life (iv, t1/2, Cohort 3b, […] IV infusion 2 hours, Median): 13.1 h | half-life (iv, t1/2, Cohort 3b, […] IV infusion 2 hours, individual subject): 17.5 h | half-life (iv, t1/2, Cohort 3b, infusion 2 hours, cohort Geometric Mean): 12.8 h | half-life (iv, t1/2, Cohort 3b, infusion 2 hours, cohort Mean): 13.1 h | half-life (iv, t1/2, Cohort 3b, infusion 2 hours, cohort Median): 13.1 h | half-life (iv, t1/2, Cohort 3b, infusion 2 hours, individual subjects): 17.5 h | half-life (iv, t1/2, Cohort 4, 0.5 mg/kg IV infusion 2 hours, Geometric Mean): 15.7 h | half-life (iv, t1/2, Cohort 4, 0.5 mg/kg IV infusion 2 hours, Mean): 16.2 h | half-life (iv, t1/2, Cohort 4, 0.5 mg/kg IV infusion 2 hours, Median): 15.6 h | half-life (iv, t1/2, Cohort 4, 0.5 mg/kg IV infusion 2 hours, individual subject): 12.6 h | half-life (iv, t1/2, Cohort 4, 0.5 mg/kg IV, infusion 2 hours, cohort Geometric Mean): 15.7 h | half-life (iv, t1/2, Cohort 4, 0.5 mg/kg IV, infusion 2 hours, cohort Mean): 16.2 h | half-life (iv, t1/2, Cohort 4, 0.5 mg/kg IV, infusion 2 hours, cohort Median): 15.6 h | half-life (iv, t1/2, Cohort 4, 0.5 mg/kg IV, infusion 2 hours, individual subjects): 12.6 h | half-life (iv, t1/2, Cohort 5, 1 mg/kg IV infusion 4 hours, Geometric Mean): 18.6 h | half-life (iv, t1/2, Cohort 5, 1 mg/kg IV infusion 4 hours, Mean): 19.9 h | half-life (iv, t1/2, Cohort 5, 1 mg/kg IV infusion 4 hours, Median): 20.9 h | Tmax (mean Tmax, Cohort 1, from the start of infusion): 0.85 h | Tmax (mean Tmax, Cohort 5, from the start of infusion): 4.19 h | Vd (Cohort 1): 25.5 L | Vd (Cohort 5): 94.2 L | half-life (mean half-life, Cohorts 1 to 3 (0.05 to […], 1-hour infusion), increasing with dose): 7.22 to 15.2 h | half-life (mean half-life, Cohorts 3b and 4 (0.25 and 0.5 mg/kg, 2-hour infusion), increasing with dose): 13.1 to 16.2 h | half-life (mean terminal half-life, range over dose groups, dose range 0.05 to 0.5 mg/kg (Cohorts 1 to 4)): 7.4 to 19.9 h | half-life (t1/2, single 1-hour infusion 0.05 mg/kg, Geometric Mean): 7.33 h | half-life (t1/2, single 1-hour infusion 0.05 mg/kg, Mean): 7.36 h | half-life (t1/2, single 1-hour infusion 0.05 mg/kg, Median): 7.29 h | half-life (t1/2, single 1-hour infusion 0.05 mg/kg, individual subjects): 6.62 h
